Test results from PMC10564737, “Structure-based design of a phosphotyrosine-masked covalent ligand targeting the E3 ligase SOCS2” (Nature Communications, 2023).
“And” between values parts separate entries of the source, which are not always exact repeats. Equal entries are not always repeated.

Experiments:
SBC2 [1] = target: T1, SBC2 (Homo sapiens, UniProt O14508); experiment: Isothermal titration calorimetry (ITC), direct titration; type: binding; conditions: for Kd: ITC KD, direct ITC, 298 K
T1 construct: SOCS2 (amino acids 32–198); His6 (N, cleaved yes); made in house; host or cells: E. coli BL21(DE3)
Description: Experiments were performed with ITC200 instrument (Malvern) in 100 mM HEPES pH 7.5, 50 mM NaCl, 0.5 mM TCEP at 298 K. The ITC titration consisted of 0.4 μl initial injection (discarded during data analysis) followed by 19 of 2 μl injections at 120 s interval between injections. 1 mM of the ligands in 2–4% DMSO were titrated into 100 μM SBC2. […] Binding data was subtracted from a control titration where ligand was titrated into buffer, and fitted using a one-set-of-site binding model to obtain dissociation constant (Kd), binding enthalpy (ΔH), and stoichiometry (N) using MicroCal PEAQ-ITC Analysis Software1.1.0.1262 and MicroCal ITC-ORIGIN Analysis Software 7.0 (Malvern).

SBC2 [2] = target: T1, SBC2; experiment: Surface plasmon resonance (SPR) with SBC2 immobilized on the chip; type: binding
Text: (§1) First, we decided to optimize the N-terminal region of 1 while maintaining the N-methylamide group at the C-terminus. To generate analogs rapidly, we employed a solid phase synthesis using methyl indole AM resin. After Fmoc deprotection, the resin was loaded with Fmoc-Tyr (PO(OBzl)2)-OH[29]. Subsequent coupling with various commercially available carboxylic acids and cleavage with TFA allowed the rapid synthesis of N-methylcarboxamide phosphotyrosines (Supplementary Fig. 1). We introduced different substituents at the N-terminus to cover a range of physicochemical properties (e.g. alicyclic, heterocyclic, aromatic with electron-withdrawing and electron-donating groups) to maximize potential interactions (see Table 1 for representative examples). Binding affinities of the synthesized compounds for SOCS2 were measured via two orthogonal biophysical binding assays: (1) surface plasmon resonance (SPR) with SBC2 immobilized on the chip (Supplementary Fig. 7); and (2) ^19F ligand-observed displacement NMR assays, providing two orthogonal biophysical measurements of dissociation constants (KD)[29],[31]. We found an excellent correlation between the KD values measured via the two techniques (Table 1). Para-substituted benzyl moieties yielded the greatest contributions to binding affinity and there were only slight differences between electron-withdrawing groups such as a methyl ester and electron-donating such as methoxy group.
SPR experiments were performed using a Biacore S200 instrument (GE Healthcare) in 20 mM HEPES pH 7.5, 150 mM NaCl, 1 mM TCEP, 0.005% Tween20, 2% DMSO buffer at 10 °C. Biotinylated SBC2 was immobilized onto a chip surface (the final surface density of biotinylated SBC2 was ~3000–4000 RU). AviTagged-SBC was biotinylated using BirA enzyme as per manufacturer’s protocol (Avidity). Compounds were serially diluted in the running buffer and injected individually: contact time 60 s, flow rate 30 μL/min, dissociation time 150 s, using a stabilization period of 30 s and syringe wash (50% DMSO) between injections. Data analysis was carried out using Biacore Evaluation Software (GE Healthcare). All data were double-referenced for reference surface and blank injection. The processed sensograms were fit to a steady-state affinity using a 1:1 binding model for KD estimation.

SBC2 [3] = target: T1, SBC2; experiment: 19F ligand-observed displacement (CPMG) NMR assay; type: binding; conditions: Table 1, n = 1
Text: as §1, with “We introduced different substituents at the N-terminus to cover a range of physicochemical properties (e.g. alicyclic, heterocyclic, aromatic with electron-withdrawing and electron-donating groups) to maximize potential interactions (see Table 1 for representative examples).” left out, “Para-substituted benzyl moieties yielded the greatest contributions to binding affinity and there were only slight differences between electron-withdrawing groups such as a methyl ester and electron-donating such as methoxy group.” left out
Experiments were performed using an Avance III 500 MHz Bruker spectrometer equipped with a 5 mm CPQCI 1H/19 F/13 C/15 N/D Z-GRD cryoprobe at 298 K as described previously. Spectra were recorded using 80 scans of a CPMG pulse sequence that attenuates broad resonances. […] All NMR data were processed and analyzed using TopSpin (Bruker). The dissociation constant was calculated as described previously.

[4] = target: GHR pY595 peptide (Homo sapiens) (UniProt P10912); conditions: cited from earlier work
[5] = Table 2, second-round library, n = 1

T1 sequence (O14508 32-198): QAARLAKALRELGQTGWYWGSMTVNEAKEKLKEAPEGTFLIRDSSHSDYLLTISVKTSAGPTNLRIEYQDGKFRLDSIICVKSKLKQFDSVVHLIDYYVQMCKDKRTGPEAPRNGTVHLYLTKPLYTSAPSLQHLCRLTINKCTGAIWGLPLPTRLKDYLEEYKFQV
T1 sequence (Q15370 1-104 partner limits assumed): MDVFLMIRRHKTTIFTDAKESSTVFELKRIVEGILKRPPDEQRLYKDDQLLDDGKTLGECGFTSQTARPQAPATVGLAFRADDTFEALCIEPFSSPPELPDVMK
T1 sequence (Q15369 17-112 partner limits assumed): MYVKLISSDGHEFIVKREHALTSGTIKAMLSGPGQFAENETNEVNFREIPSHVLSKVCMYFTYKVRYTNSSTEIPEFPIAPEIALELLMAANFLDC
Chain of GHR pY595 peptide (Homo sapiens) (P10912 whole entry, looked up, tested part not stated): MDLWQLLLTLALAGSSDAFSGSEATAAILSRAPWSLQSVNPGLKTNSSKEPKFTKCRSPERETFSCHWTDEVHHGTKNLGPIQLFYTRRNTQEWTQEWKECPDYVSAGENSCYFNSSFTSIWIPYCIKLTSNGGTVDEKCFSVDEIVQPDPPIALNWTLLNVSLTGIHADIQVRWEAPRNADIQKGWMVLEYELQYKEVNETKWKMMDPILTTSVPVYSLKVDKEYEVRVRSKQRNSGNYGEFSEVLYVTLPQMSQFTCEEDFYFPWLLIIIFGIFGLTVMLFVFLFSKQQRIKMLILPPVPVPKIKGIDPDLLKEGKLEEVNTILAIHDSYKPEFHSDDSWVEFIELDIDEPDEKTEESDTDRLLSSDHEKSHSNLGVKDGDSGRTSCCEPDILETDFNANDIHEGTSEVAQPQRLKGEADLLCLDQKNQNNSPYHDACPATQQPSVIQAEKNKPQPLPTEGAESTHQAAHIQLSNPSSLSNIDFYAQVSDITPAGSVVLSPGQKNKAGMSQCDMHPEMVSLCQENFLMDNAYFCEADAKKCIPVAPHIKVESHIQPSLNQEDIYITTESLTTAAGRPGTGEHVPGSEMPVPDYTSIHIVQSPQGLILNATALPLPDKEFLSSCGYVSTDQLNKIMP
Chain of SOCS2 SH2 (O14508 45-159): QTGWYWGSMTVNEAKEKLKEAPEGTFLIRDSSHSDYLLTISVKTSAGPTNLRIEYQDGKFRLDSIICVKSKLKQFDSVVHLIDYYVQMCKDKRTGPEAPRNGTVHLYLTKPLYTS

Row | Compound | weaker binding than the full phosphorylated peptide (SBC2 [1]) [fold] | Kd (SBC2 [1]) | Kd (SBC2 [2]; Table 1, n = 1) [µM] | Kd (SBC2 [3]) [µM] | ITC ΔG (SBC2 [1]) [kcal/mol] | ITC −TΔS (SBC2 [1]) [kcal/mol] | Kd (SBC2 [2]; [5]) [µM] | ITC ΔH (SBC2 [1]) [kcal/mol] | Kd [4] [µM]
1 | CNC(=O)[C@H](Cc1ccc(OP(=O)(O)O)cc1)NC(C)=O [Compound 1] | 100 | 192 µM and 190 µM | 269 | 186 |  |  |  |  | 
2 | CNC(=O)[C@H](Cc1ccc(OP(=O)(O)O)cc1)NC(=O)Cc1ccc(F)cc1 [Compound 5] |  |  | 49 | 32 |  |  |  |  | 
3 | C=CCc1cc(CNC(=O)[C@H](Cc2ccc(OP(=O)(O)O)cc2)NC(=O)Cc2ccc(F)cc2)ccc1F [Compound 13] |  | 0.38 µM |  |  | -8.75 | -1.62 | 2.4 |  | 
4 | C=CCc1cccc(CNC(=O)[C@H](Cc2ccc(OP(=O)(O)O)cc2)NC(=O)Cc2ccc(F)cc2)c1 [Compound 14, (S)-4-(3-((3-allylbenzyl)amino)-2-(2-(4-fluorophenyl)acetamido)-3-oxopropyl)phenyl phosphate] |  | 0.48 µM |  |  | -8.61 | -2.26 | 2.4 | -6.31 | 
5 | SOCS2 SH2 (from UniProt O14508) |  |  |  |  |  |  |  |  | 1.1
